ChEMBL document CHEMBL4152231, “Identification of novel 2-benzyl-1-indanone analogs as interleukin-5 inhibitors” (Eur J Med Chem, 2018)

biological target: T1, Interleukin-5 (Mus musculus) (UniProt P04401); experiment: Inhibition of IL-5 in mouse Y16 cells assessed as reduction in cell proliferation at 30 uM after 48 hrs by WST-1 assay relative to control; format: cell-based
T1 sequence (whole entry): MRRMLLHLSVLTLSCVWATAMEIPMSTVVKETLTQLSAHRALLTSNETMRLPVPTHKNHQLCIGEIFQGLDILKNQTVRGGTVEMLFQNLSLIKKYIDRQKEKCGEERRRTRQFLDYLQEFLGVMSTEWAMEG

In order of falling inhibition:
1. O=C1c2c(cccc2OCC2CCCCC2)CC1Cc1ccc(O)cc1 (stereo unspecified)  100%
2. O=c1c(Cc2ccc(O)cc2)coc2cccc(OCC3CCCCC3)c12  96%
3. O=C1c2c(cccc2OCC2CCCCC2)CC1Cc1cccc(O)c1 (stereo unspecified)  95%
4. COCOc1ccc(CC2Cc3cccc(OCC4CCCCC4)c3C2=O)cc1 (stereo unspecified)  90%
5. O=C1c2c(cccc2OCCC2CCCCC2)CC1Cc1ccc(O)cc1 (stereo unspecified)  78%
6. O=C1c2c(cccc2OCC2CCCCC2)CC1Cc1ccc(Cl)cc1 (stereo unspecified)  70%
7. O=C1c2c(cccc2OCc2ccccc2)CC1Cc1ccc(O)cc1 (stereo unspecified)  70%
8. Cc1ccc(CC2Cc3cccc(OCC4CCCCC4)c3C2=O)cc1 (stereo unspecified)  68%
9. O=C1c2c(cccc2OCCc2ccccc2)CC1Cc1cccc(O)c1 (stereo unspecified)  60.5%
10. O=C1c2c(cccc2OCCc2ccccc2)CC1Cc1ccc(O)cc1 (stereo unspecified)  59%
11. O=C1c2c(cccc2OCCc2ccccc2)CC1Cc1ccccc1O (stereo unspecified)  47%
12. O=C1/C(=C/c2ccc(O)cc2)Cc2cccc(OCC3CCCCC3)c21  47%
13. COc1ccc(CC2Cc3cccc(OCC4CCCCC4)c3C2=O)cc1 (stereo unspecified)  44%
14. O=C1/C(=C/c2ccccc2)Cc2cccc(O)c21  40%
15. O=C1/C(=C/c2ccc(O)cc2)Cc2cccc(O)c21  35%
16. O=C1/C(=C/c2ccc(O)cc2)Cc2cccc(OCc3ccc([N+](=O)[O-])cc3)c21  32%
17. O=C1c2c(O)cccc2CC1Cc1ccc(O)cc1 (stereo unspecified)  30%
18. COc1ccc(COc2cccc3c2C(=O)/C(=C/c2ccc(Cl)cc2)C3)cc1  29%
19. COc1ccc(/C=C2\Cc3cccc(O)c3C2=O)cc1  25%
20. COCOc1ccc(/C=C2\Cc3cccc(OCC4CCCCC4)c3C2=O)cc1  23.5%
21. COc1ccc(COc2cccc3c2C(=O)/C(=C/c2ccc(C)cc2)C3)cc1  17%
22. O=C1c2c(cccc2OCC2CCCCC2)CC1Cc1ccccc1O (stereo unspecified)  13%
23. COc1ccc(/C=C2\Cc3cccc(OCc4ccc(OC)cc4)c3C2=O)cc1  6%
24. COc1ccc(/C=C2\Cc3cccc(OCC4CCCCC4)c3C2=O)cc1  5.6%
25. COc1ccc(COc2cccc3c2C(=O)/C(=C/c2ccccc2)C3)cc1  5%
26. COc1ccc(COc2cccc3c2C(=O)/C(=C/c2ccc(O)cc2)C3)cc1  0%
